Key:
LeuT [1] = assay: Scintillation proximity assay, time course of 3H-substrate binding to LeuT with or without Na+ pre-incubation; design: species or system Aquifex aeolicus; details: 3H-Leu 100 nM or 3H-Ala 500 nM, LeuT wild type
Protocol: We bound ^3H-leucine (140 Ci mmol^–1; Moravek) to purified LeuT-variants using the scintillation proximity assay (SPA) as described[17],[18] with 25 ng of purified protein per assay in buffer composed of 50 mM Tris/Mes (pH 8.0), 100 mM NaCl, 1 mM TCEP, 20% glycerol and 1 mM DDM.
Supplementary Figure 5. Pre-incubation of LeuT with Na+ modulates substrate binding.
The time course of binding of (a,c,d) 3H-Leu (100 nM) or (b) 3H-Ala (500 nM) to LeuT wild type (WT; a,b) or LeuT-L400S (c) or -F253A (d) in the absence (open black squares) or presence (filled red circles) of Na+ was measured using the scintillation proximity assay4 (see Methods). Data are shown as mean ± s.e.m. of three technical replicates of a representative experiment performed in parallel (experiments with individual mutants were repeated ≥ 2) and normalized with regard to the steady state level of LeuT-WT. […]

LeuT [2] = assay: smFRET imaging of intracellular-labeled LeuT (H7C/R86C), FRET state occupancy and dynamics; format: biochemical, Aquifex aeolicus
Protocol: Fluorescence experiments were performed using a prism-based total internal reflection fluorescence (TIRF) microscope as previously described[15],[16]. Microfluidic imaging chambers passivated with a mixture of PEG and biotin-PEG were prepared with 0.8 µM streptavidin (Invitrogen) and 4 nM biotin-tris-(NTA-Ni^2+)[46]. Fluorophore labeled, His-tagged LeuT molecules were reversibly immobilized to the surface-associated Ni^2+ atoms. LD550 (Cy3) fluorophores were excited by the evanescent wave generated by total internal reflection (TIR) of a 532 nm diode-pumped solid state laser (Opus, Laser Quantum). Photons emitted from LD550 (Cy3) and LD650 (Cy5) were collected using a 1.27 NA 60 × PlanApo water-immersion objective (Nikon) and a MultiCam-LS device (Cairn) with a T635lpxr-UF2 dichroic mirror (Chroma) to separate the spectral channels onto two synchronized sCMOS cameras (Flash 4.0 v2, Hamamatsu). Fluorescence data were acquired using custom software implemented in LabView (National Instruments) at 10 frames per second (100 ms time resolution).
Unless otherwise specified, all experiments were performed at 25 °C in buffer containing 50 mM Tris/Mes (pH 7.0), 10% glycerol, 1 mM DDM (Anatrace), 1 mM 2-mercaptoethanol and 200 mM total salt (KCl and NaCl, as specified). An oxygen-scavenging environment consisting of 0.2 units per ml purified glucose oxidase (Sigma G2133), 1.8 units per μl purified catalase (Sigma C40), 0.1% (v/v) glucose was used in all experiments to minimize photobleaching.
(§1) Analysis of single-molecule fluorescence data was performed using custom software written in MATLAB (MathWorks)[22]. […] FRET traces were calculated as EFRET=IA∕(IA+ID) , where IA and ID are the donor and acceptor fluorescence traces, and set to zero whenever the donor was in the dark state. […] SNRSignal (12:1 on average) is the signal magnitude relative to noise within the fluorescence trace prior to photobleaching, which includes all noise sources, including photon statistics and photophysical noise, in addition to background noise. […]

LeuT [3] = assay: smFRET imaging of extracellular-labeled LeuT (K239C/H480C), FRET state occupancy and dynamics; format: biochemical, Aquifex aeolicus; details: no substrate
Protocol: Fluorescence experiments were performed using a prism-based total internal reflection fluorescence (TIRF) microscope as previously described[15],[16]. Microfluidic imaging chambers passivated with a mixture of PEG and biotin-PEG were prepared with 0.8 µM streptavidin (Invitrogen) and 4 nM biotin-tris-(NTA-Ni^2+)[46]. Fluorophore labeled, His-tagged LeuT molecules were reversibly immobilized to the surface-associated Ni^2+ atoms. LD550 (Cy3) fluorophores were excited by the evanescent wave generated by total internal reflection (TIR) of a 532 nm diode-pumped solid state laser (Opus, Laser Quantum). […] Fluorescence data were acquired using custom software implemented in LabView (National Instruments) at 10 frames per second (100 ms time resolution). […]
as §1

**Q.** Which “Effect of pre-incubating LeuT with Na+ on the rate of substrate binding” value (LeuT [1]) does the source give for `C[C@H](N)C(=O)O` [Ala, alanine] here?
**A.** no such delay in binding

**Q.** For `[Li+]` [Li^+], which EC50 (LeuT [2]; LiCl titration in the presence of 250 μM Ala, Hill coefficient fixed at 2.0, read-out: EC50 of dose-response fit of intracellular high-FRET state occupancy) is on record?
**A.** 100 mM

**Q.** What about the EC50 (LeuT [2]; LiCl titration in the presence of 250 μM Ala, Hill coefficient fixed at 2.0, read-out: EC50 of dose-response fit of intracellular intermediate-FRET state occupancy) of the same molecule?
**A.** 67 mM

**Q.** And the “EC50 for inducing high-FRET state stabilization, fold higher than for Na+” value (LeuT [3]; extracellular side)?
**A.** seven-fold higher

**Q.** Which EC50 (LeuT [2]; NaCl titration in the presence of 250 μM Ala, read-out: EC50 values of dose-response fits of intracellular low-, intermediate- and high-FRET state occupancies) does the source give for `[Na+]` [Na^+, sodium] here?
**A.** 8 to 20 mM

**Q.** And the EC50 (LeuT [3]; Na+ titration, Hill coefficient fixed at 2.0, read-out: EC50 of dose-response fit of extracellular FRET state occupancy)?
**A.** 55 mM

**Q.** Which “Effect of pre-incubating LeuT with Na+ on the rate of substrate binding” value (LeuT [1]) does the source give for `CC(C)C[C@H](N)C(=O)O` [Leu, leucine] here?
**A.** dramatically slowed

From paper PMC5768729, “A partially-open inward-facing intermediate conformation of LeuT is associated with Na^+ release and substrate transport” (Nature Communications, 2018)
